Tests used:
Assay type in all cases: cell-based, human
NK cells [1] = assay: CD107a level on NK cells in PBMC stimulated with K562 target cells, flow cytometry (Example 1); conditions: PBMC (NK cell purity 95% or higher) treated with ginsenoside, then K562 target cells; FIG. 1
Method: To discover ginsenosides which can affect the cell-killing activity of NK cells, peripheral blood mononuclear cells (PBMC) separated from the blood were treated with 15 different kinds of (C-K, F2, PPD, Rb1, Rb2, Rc, Rd, Rg3, Rh2, F1, PPT, Re, Rg1, Rg2, and Rh1) ginsenosides, and then, the level of CD107a, which is a marker protein representing cell-killing activity and expressed on NK cells, was measured by flow cytometry (FIG. 1).
In particular, for the PBMC, those selected as follows were used. That is, the collected blood samples were transferred into Vacutainer Cell Preparation tubes (sodium heparin; BD Biosciences), centrifuged to recover a buffy coat, lymphocytes and monocyte band, and the recovered buffy coat was washed with PBS and applied to the human NK cell negative selection kit (Miltenyl Biotech) to isolate […].
Additionally, the CD107a level was measured as follows. […] Then, the NK cells were isolated by performing flow cytometry analysis using anti-CD3 antibody and anti-CD56 antibody, and the NK cells were immunostained using anti-CD107a antibody and the level of CD107a was measured.

NK cells [2] = assay: Intracellular IFN-γ expression by NK cells in PBMC stimulated with mutants of KCL-22 cells, flow cytometry (Example 2); conditions: PBMC treated with ginsenoside, stimulated with equal number of mutants of KCL-22 cells, Brefeldin A; FIG. 2
Method: The 7 different kinds of ginsenosides discovered in Example 1 were treated and those ginsenosides which increased the expression level of the immune-stimulating factor (IFN-γ) by NK cells were selected (FIG. 2). In particular, the expression level of IFN-γ was measured as follows. That is, the PBMC samples isolated in Example 1 were treated with each ginsenoside, stimulated by treating with the equal number of target cells (mutants of KCL-22 cells), and then treated with Brefeldin A (GolgiPlug; BD Biosciences). Thereafter, a flow cytometry analysis was performed using fluochrome-conjugated anti-CD3 antibody and anti-CD56 antibody to identify NK cells present in PBMC, and then treated with Cytofix/Cytoperm (BD Biosicences) for perforation, and immunostained with fluochrome-conjugated anti-IFN-γ antibody to measure the intracellular level of IFN-γ(FIG. 2).

NK cells [3] = assay: CD107a level on primary NK cells incubated with mutants of KCL-22 cells (Example 3); conditions: NK cells isolated from PBMC, incubated with mutants of KCL-22 cells (Gleevec-resistant leukemia cells); DMSO control; FIG. 3
Method: An attempt was made to select ginsenosides which induce the increase of the CD107a level on primary NK cells among the 4 different kinds of ginsenosides (Rg3, Rh2, F1, and Rg1) selected in Example 2.
Specifically, the NK cells isolated from the PBMC were activated by treating with the 4 different kinds of ginsenosides, then incubated with mutants of KCL-22 cells (i.e., Gleevec-resistant leukemia cells), and the level of CD107a on NK cells was measured and compared (FIG. 3). In particular, NK cells treated with DMSO, instead of ginsenosides, were used as a control group.

[4] = system: Gleevec-resistant mutants of KCL-22 cells; assay: Cell-killing activity of NK cells against europium-labeled target cells (Example 5); conditions: E:T ratios 0.625:1, 1.25:1, 2.5:1, 5:1; DMSO control; FIGS. 5A and 5B
Method: The NK cells isolated in Example 1 was treated with ginsenoside F1 or ginsenoside Rg3, and incubated with target cells (Gleevec-resistant mutants of KCL-22 cells) labeled with an europium fluorescent dye at various E:T ratios (the ratio between the number of NK cells:the number of target cells=0.625:1, 1.25:1, 2.5:1, or 5:1), and thereby breaking down the target cells with the NK cells activated by the ginsenoside, and the europium fluorescent dye labeled to the target cells was released as a reaction solution. Upon completion of the reaction, the level of the europium fluorescent dye contained in the reaction solution was measured, and the cell-killing activity of the NK cells was compared (FIGS. 5A and 5B). In particular, NK cells treated with DMSO, instead of ginsenosides, were used as control group.

NK cells [5] = assay: Concentration-dependent change of CD107a level on NK cells (Example 4); conditions: NK cells isolated from PBMC, 5 μM to 20 μM; DMSO control; FIGS. 4A and 4B
Method: NK cells isolated from PBMC were treated with ginsenoside F1 (which increases the selected CD107a level to the highest level) and Rg3 (which increases the selected CD107a level to the 2nd highest level), selected from Example 3, at various concentrations (5 μM to 20 μM), and the change in the CD107a level was measured (FIGS. 4A and 4B). In particular, NK cells treated with DMSO, instead of ginsenosides, were used as a control group.

Structure (SMILES)	level of CD107a expression on NK cells (NK cells [1])	expression level of IFN-γ by NK cells (NK cells [2])	level of CD107a on primary NK cells (rank among the 4 ginsenosides) (NK cells [3])	cell-killing activity of NK cells (europium fluorescent dye release) [4]	change in the CD107a level on NK cells by concentration (NK cells [5])
CC(C)=CCC[C@](C)(O)[C@H]1CC[C@]2(C)[C@@H]1[C@H](O)C[C@@H]1[C@@]3(C)CC[C@H](O)C(C)(C)[C@@H]3[C@@H](O[C@@H]3O[C@H](CO)[C@@H](O)[C@H](O)[C@H]3O[C@@H]3O[C@@H](C)[C@H](O)[C@@H](O)[C@H]3O)C[C@]12C [Rg2]	increase the level of CD107a expression on NK cells				
CC(C)=CCC[C@](C)(O[C@@H]1O[C@H](CO)[C@@H](O)[C@H](O)[C@H]1O)[C@H]1CC[C@]2(C)[C@@H]1[C@H](O)C[C@@H]1[C@@]3(C)CC[C@H](O[C@@H]4O[C@H](CO)[C@@H](O)[C@H](O)[C@H]4O)C(C)(C)[C@@H]3CC[C@]12C [F2]	increase the level of CD107a expression on NK cells				
CC(C)=CCC[C@](C)(O[C@@H]1O[C@H](CO[C@@H]2O[C@H](CO)[C@@H](O)[C@H](O)[C@H]2O)[C@@H](O)[C@H](O)[C@H]1O)[C@H]1CC[C@]2(C)[C@@H]1[C@H](O)C[C@@H]1[C@@]3(C)CC[C@H](O[C@@H]4O[C@H](CO)[C@@H](O)[C@H](O)[C@H]4O[C@@H]4O[C@H](CO)[C@@H](O)[C@H](O)[C@H]4O)C(C)(C)[C@@H]3CC[C@]12C [Rb1]	increase the level of CD107a expression on NK cells				
CC(C)=CCC[C@](C)(O)[C@H]1CC[C@]2(C)[C@@H]1[C@H](O)C[C@@H]1[C@@]3(C)CC[C@H](O[C@@H]4O[C@H](CO)[C@@H](O)[C@H](O)[C@H]4O)C(C)(C)[C@@H]3CC[C@]12C [Rh2]	increase the level of CD107a expression on NK cells	increased			
CC(C)=CCC[C@](C)(O)[C@H]1CC[C@]2(C)[C@@H]1[C@H](O)C[C@@H]1[C@@]3(C)CC[C@H](O[C@@H]4O[C@H](CO)[C@@H](O)[C@H](O)[C@H]4O[C@@H]4O[C@H](CO)[C@@H](O)[C@H](O)[C@H]4O)C(C)(C)[C@@H]3CC[C@]12C [ginsenoside Rg3, 20(S)-protopanaxadiol-3-0-β-D-glucopyranosyl(1,2)-β-D-glucopyranoside]	increase the level of CD107a expression on NK cells	increased	2nd highest	promote the cell-killing activity of NK cells against mutants of KCL-22 cells	increase the expression levels of CD107a on NK cells in a concentration-dependent manner
CC(C)=CCC[C@](C)(O[C@@H]1O[C@H](CO)[C@@H](O)[C@H](O)[C@H]1O)[C@H]1CC[C@]2(C)[C@@H]1[C@H](O)C[C@@H]1[C@@]3(C)CC[C@H](O)C(C)(C)[C@@H]3[C@@H](O[C@@H]3O[C@H](CO)[C@@H](O)[C@H](O)[C@H]3O)C[C@]12C [Rg1]	increase the level of CD107a expression on NK cells	increased			
